System: healthy ICR mice
Assay: glucose tolerance test in fasted ICR mice (in vivo hypoglycemic model), serum glucose by glucose oxidase method
Conditions: ICR mice fasted 16 h, dosage 10 mg/kg in 1% sodium carboxymethylcellulose, 2 g/kg glucose i.p. 2 h after test compound (Dapagliflozin: 1.5 h); for blood glucose at 0.5 h: serum 0.5 h after glucose; for blood glucose at 1 h: serum 1 h after glucose; for blood glucose at 2 h: serum 2 h after glucose; for blood glucose at 3 h: serum 3 h after glucose; for blood glucose at 4 h: serum 4 h after glucose
Method: A suspension of the test compounds with […] was prepared by dissolving the sample in 1% sodium carboxymethylcellulose solution. The administration dosage is 0.2 ml/20 g body weight, which equals to a dosage of 10 mg/kg.
Female and male of healthy ICR mice are half to half, and the weight is 20-24 g, in accordance with standard level one. Animals were fasted for 16 hours. 2 g/kg glucose in saline was intraperitoneally injected 2 hours after the test compounds (for Dapagliflozin, glucose was injected 1.5 hours after medicine), and blood samples were collected from mice tall vein using capillary at fixed times of 0.5 h, 1 h, 2 h, 3 h and 4 h after challenging with glucose. The sera were separated using centrifugation. The glucose oxidase method was used to measure glucose content of serum at different time points.

**Q.** `CCOc1ccc(Cc2cc([C@@H]3O[C@H](CO)[C@@H](O)[C@H](O)[C@H]3O)ccc2Cl)cc1` [Dapagliflozin, reference compound] was tested. Which “blood glucose at 0.5 h” value did it give?
**A.** 277.1 ± 42.4 mg/dL

**Q.** What about the “blood glucose at 1 h” value of the same compound?
**A.** 172.1 ± 34.1 mg/dL

**Q.** And the “blood glucose at 2 h” value?
**A.** 92.1 ± 21.1 mg/dL

**Q.** And the “blood glucose at 3 h” value?
**A.** 81.3 ± 20.1 mg/dL

**Q.** What about the “blood glucose at 4 h” value of the same compound?
**A.** 60.0 ± 11.0 mg/dL

**Q.** `CCOc1ccc(C(F)c2cc([C@@H]3O[C@H](CO)[C@@H](O)[C@H](O)[C@H]3O)ccc2Cl)cc1` (stereo partly drawn) [Example 1, 1-{4-chloro-3-[(4-ethyoxyphenyl)fluoromethyl]phenyl}-1-deoxy-β-D-glucopyranose] was tested. Which “blood glucose at 0.5 h” value did it give?
**A.** 194.1 ± 41.3 mg/dL

**Q.** What about the “blood glucose at 1 h” value of the same compound?
**A.** 161.1 ± 35.4 mg/dL

**Q.** And the “blood glucose at 2 h” value?
**A.** 97.3 ± 31.2 mg/dL

**Q.** What about the “blood glucose at 3 h” value of the same compound?
**A.** 69.1 ± 22.1 mg/dL

**Q.** And the “blood glucose at 4 h” value?
**A.** 67.2 ± 17.1 mg/dL

**Q.** What does the source list for `CCOc1ccc(C(C)(C)c2cc([C@@H]3O[C@H](CO)[C@@H](O)[C@H](O)[C@H]3O)ccc2Cl)cc1` [Example 16, 1-{4-chloro-3-[(dimethyl)(4-ethyoxyphenyl)methyl]phenyl}-1-deoxy-β-D-glucopyranose]?
**A.** blood glucose at 0.5 h: 157.1 ± 21.3 mg/dL; blood glucose at 1 h: 137.0 ± 27.7 mg/dL; blood glucose at 2 h: 102.4 ± 17.5 mg/dL; blood glucose at 3 h: 88.1 ± 32.2 mg/dL; blood glucose at 4 h: 70.3 ± 14.2 mg/dL

**Q.** `CCOc1ccc(C(C)c2cc([C@@H]3O[C@H](CO)[C@@H](O)[C@H](O)[C@H]3O)ccc2Cl)cc1` (stereo partly drawn) [Example 36, 1-{4-chloro-3-[1-(4-ethyoxyphenyl)ethyl]phenyl}-1-deoxy-β-D-glucopyranose] was tested. Which “blood glucose at 0.5 h” value did it give?
**A.** 189.1 ± 21.2 mg/dL

**Q.** What about the “blood glucose at 1 h” value of the same compound?
**A.** 120.1 ± 10.2 mg/dL

**Q.** And the “blood glucose at 2 h” value?
**A.** 113.0 ± 11.0 mg/dL

**Q.** And the “blood glucose at 3 h” value?
**A.** 74.6 ± 21.0 mg/dL

**Q.** What about the “blood glucose at 4 h” value of the same compound?
**A.** 69.1 ± 13.2 mg/dL

**Q.** How did the “blood glucose at 0.5 h” value turn out when `CCOc1ccc(C(C)(OC)c2cc([C@@H]3O[C@H](CO)[C@@H](O)[C@H](O)[C@H]3O)ccc2Cl)cc1` (stereo partly drawn) [Example 51, 1-{4-chloro-3-[1-(4-ethyoxyphenyl)-1-methoxyethyl]phenyl}-1-deoxy-β-D-glucopyranose] was run?
**A.** 250.5 ± 33.1 mg/dL

**Q.** And the “blood glucose at 1 h” value?
**A.** 158.2 ± 20.6 mg/dL

**Q.** What about the “blood glucose at 2 h” value of the same compound?
**A.** 123.2 ± 33.1 mg/dL

**Q.** What about the “blood glucose at 3 h” value of the same compound?
**A.** 101.2 ± 11.7 mg/dL

**Q.** And the “blood glucose at 4 h” value?
**A.** 75.5 ± 21.4 mg/dL

**Q.** Which “blood glucose at 0.5 h” value does the source give for `CCOc1ccc(C(C)(F)c2cc([C@@H]3O[C@H](CO)[C@@H](O)[C@H](O)[C@H]3O)ccc2Cl)cc1` (stereo partly drawn) [Example 52, 1-{4-chloro-3-[1-(4-ethyoxyphenyl)-1-fluoroethyl]phenyl}-1-deoxy-β-D-glucopyranose] here?
**A.** 209.3 ± 30.4 mg/dL

**Q.** And the “blood glucose at 1 h” value?
**A.** 175.1 ± 20.5 mg/dL

**Q.** And the “blood glucose at 2 h” value?
**A.** 158.6 ± 31.1 mg/dL

**Q.** And the “blood glucose at 3 h” value?
**A.** 101.2 ± 12.4 mg/dL

**Q.** What about the “blood glucose at 4 h” value of the same compound?
**A.** 80.0 ± 13.2 mg/dL

**Q.** How did the “blood glucose at 0.5 h” value turn out when `CCOc1ccc(C(OC)c2cc([C@@H]3O[C@H](CO)[C@@H](O)[C@H](O)[C@H]3O)ccc2Cl)cc1` (stereo partly drawn) [Example 53, 1-{4-chloro-3-[1-(4-ethyoxyphenyl)(methoxyl)methyl]phenyl}-1-deoxy-β-D-glucopyranose] was run?
**A.** 199.0 ± 21.3 mg/dL

**Q.** And the “blood glucose at 1 h” value?
**A.** 171.4 ± 36.1 mg/dL

**Q.** What about the “blood glucose at 2 h” value of the same compound?
**A.** 110.2 ± 20.8 mg/dL

**Q.** And the “blood glucose at 3 h” value?
**A.** 93.0 ± 17.7 mg/dL

**Q.** And the “blood glucose at 4 h” value?
**A.** 69.6 ± 17.3 mg/dL

Source: patent US9062087B2, “Phenyl C-glucoside derivatives, preparation methods and uses thereof” (Tianjin Institute of Pharmaceutical Research, priority 2010, dated 2015)
